The source of these data is patent publication US20260364124A1, “ANTI-C. DIFFICILE SMALL MOLECULE METABOLITES FROM DIET AND GUT MICROBIOME” (The Children's Medical Center Corporation, priority 2023, published 2026).

Entries after “also recorded” stand apart in the source; their conditions may differ.

This assay relates to C. difficile M7404. In words: In vitro polydatin bioactivation and C. difficile antagonism by conditioned (spent) media of B. uniformis WT. Type of assay: cell-based, Clostridioides difficile. The note with it: polydatin 500 μM, 1/2-diluted, C. difficile M7404 growth 12 h (FIG. 5A). The protocol: FIGS. 5A and 5B show microbiome-mediated polyphenol aglycone liberation. […] Step 2: Spent media was filter-sterilized. Step 3: C. difficile was grown in spent media from either vehicle or polydatin (top). […]
The experimental media consisted of a modified YCFA media (mYCFA; casitone (2.5 g/L), yeast extract (0.625 g/L), cysteine (0.5 g/L), magnesium sulfate heptahydrate (f.c. 365 μM), calcium chloride dihydrate (f.c. 610 μM), sodium bicarbonate (4 g/L), dipotassium phosphate (0.45 g/L), monopotassium phosphate (0.45 g/L), sodium chloride (0.9 g/L), sodium acetate (2.71 g/L), Hemin (50 mg/L), Vitamin K1 (0.25 mg/L), ferrous sulfate (4 μg/mL), and ATCC vitamin mix (1% v/v)) supplemented with glucose (15 mM, Sigma) plus ½-diluted B. uniformis WT or AgshD conditioned media from growth with or without polydatin. C. difficile growth was monitored by measuring the optical density at 600 nm (OD600) of each culture in a 384 well plate with an Epoch2 spectrophotometer (BioTek Instruments) for 12 hours.

With `OC[C@H]1O[C@@H](Oc2cc(O)cc(/C=C/c3ccc(O)cc3)c2)[C@H](O)[C@@H](O)[C@@H]1O` [polydatin], the “anti-C. difficile activity of conditioned media from B. uniformis WT grown with polydatin” value is “inhibited the growth of Clostridioides difficile in vitro; also recorded: generated potent anti-C.difficile activity”.
